From patent US12077555B2, “STAT degraders and uses thereof” (Kymera Therapeutics, Inc., priority 2019, dated 2024)

Tests used:
Type in all cases: cell-based
[1] = test system: STAT3-mediated gene expression (SOCS3, PD-L1); test: RT-qPCR of STAT3, SOCS3 and PDL-1 mRNA levels in SU-DHL-1 cells; conditions: FIG. 15
Experimental: FIG. 5. Includes graphical images and tables showing the results of RT-qPCR in SU-DHL-1 cells at 24 hours (A) with mRNA levels (% control) over I-103 concentration (nM)(x-axis) for STAT3, SOCS3, and PDL-1 genes and CellTiterGlo (CTG) cell viability at 4 days (B) with growth inhibition (% control) over I-103 concentration (nM)(x-axis) for MOLM-16 and SU-DHL-1 cell lines. Also shown are the results of MSD degradation DC50 (nM) in MOLM-16 and SU-DHL-1 cell lines at 24 hours.

[2] = test system: KI-JK cells; test: CellTiter-Glo cell viability, KI-JK
[3] = biological target: STAT3 (Homo sapiens, UniProt P40763); test: Deep tandem mass tag proteomics; conditions: Molm-16 and SU-DHL-1 cells, 8 hours, FIGS. 4 and 13
Sequence of STAT3 (P40763 whole entry): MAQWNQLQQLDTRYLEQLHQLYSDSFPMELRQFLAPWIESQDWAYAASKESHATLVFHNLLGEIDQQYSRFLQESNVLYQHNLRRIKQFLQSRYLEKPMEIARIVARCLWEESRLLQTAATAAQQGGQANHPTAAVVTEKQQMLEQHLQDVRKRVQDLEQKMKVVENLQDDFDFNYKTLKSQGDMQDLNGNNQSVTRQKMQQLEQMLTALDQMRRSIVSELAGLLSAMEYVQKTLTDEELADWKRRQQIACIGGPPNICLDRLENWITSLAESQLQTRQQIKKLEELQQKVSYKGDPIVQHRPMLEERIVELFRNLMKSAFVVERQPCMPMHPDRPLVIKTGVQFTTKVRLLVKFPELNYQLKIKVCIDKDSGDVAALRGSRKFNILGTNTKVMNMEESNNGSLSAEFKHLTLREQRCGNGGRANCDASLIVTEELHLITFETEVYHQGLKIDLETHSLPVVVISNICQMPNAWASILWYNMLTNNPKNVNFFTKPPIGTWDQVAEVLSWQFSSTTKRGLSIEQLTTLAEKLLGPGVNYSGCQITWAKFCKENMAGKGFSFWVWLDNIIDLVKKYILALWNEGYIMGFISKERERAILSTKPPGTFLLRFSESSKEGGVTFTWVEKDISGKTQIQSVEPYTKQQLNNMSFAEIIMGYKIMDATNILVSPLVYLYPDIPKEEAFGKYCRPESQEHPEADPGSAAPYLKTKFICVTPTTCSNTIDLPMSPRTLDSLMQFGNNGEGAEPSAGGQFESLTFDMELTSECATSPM
Experimental: Total protein was isolated from cells (e.g., Molm-16 and SU-DHL-1) and treated with degrader for 8 hours. Vehicle (DMSO)-treated cells were used as controls. Protein lysates, 2 biological replicates per condition, were prepared at 4 C in 8M urea, 75 mM NaCl, 1 mM EDTA in 50 mM Tris HCl (pH 8), 10 mM NaF, phosphatase inhibitor cocktail 2 (1:100; Sigma, P5726) and cocktail 3 (1:100; Sigma, P0044), 2 μg/mL aprotinin (Sigma, A6103), 10 μg/mL Leupeptin (Roche, 11017101001), and 1 mM PMSF (Sigma, 78830). Lysates were spun at 20,000 rcf for 10 min and supernatant (containing extracted proteins) was transferred to a clean microcentrifuge tube. Protein concentrations were determined using the Pierce BCA assay. Protein lysates were reduced with 5 mM dithiothreitol (Thermo Scientific, 20291) for 45 min at room temperature and alkylated with 10 mM iodoacetamide (Sigma, A3221) for an additional 45 min. […] Online fractionation was performed using a nanoflow Proxeon EASY-nLC 1200 UHPLC system (Thermo Fisher Scientific) and separated peptides were analyzed on a benchtop Orbitrap Q Exactive plus mass spectrometer (Thermo Fisher Scientific). All data were analyzed using Spectrum Mill software package (Agilent Technologies). […] In total, 10,992 proteins were quantified. […]

Cn1c(=O)n(C2CCC(=O)NC2=O)c2ccc(C[C@H]3CC[C@@H](CC(=O)N4CC[C@H]5CC[C@@H](C(=O)N[C@@H](CCC(N)=O)C(=O)NC(c6ccccc6)c6ccccc6)N5C(=O)[C@@H](NC(=O)c5cc6cc(C(=O)P(=O)(O)O)ccc6[nH]5)C4)CC3)cc21 (stereo partly drawn) [Compound I-174, 2-[[(5S,8S,10aR)-8-[[(1S)-3-carbamoyl-1-(diphenylmethylcarbamoyl)propyl]carbamoyl]-6-oxo-3-[2-[(1s,4s)-4-[[1-(2,6-dioxopiperidin-3-yl)-3-methyl-2-oxo-1,3-benzodiazol-5-yl]methyl]cyclohexyl]acetyl]-octahydropyrrolo[1,2-a][1,5]diazocin-5-yl]carbamoyl]-1H-indole-5-carbonylphosphonic acid]
STAT3-mediated gene expression of SOCS3 and PD-L1 [1]: repression of STAT3-mediated gene expression
IC50 ([2]; 96 h, ALCL (ALK+), Day 4, read-out: CTG, IC50 μM, Day 4): 0.047 µM
CTG (% Max inh), Day 4 ([2]; ALCL (ALK+), Day 4): (97) %
cell proliferation ([2]; FIG. 16): inhibit
selectivity of degradation for STAT3 vs >10,000 other detected proteins [3]: highly selective for STAT3
